In ChEMBL document CHEMBL1201862, “PubChem BioAssay data set” (2004):
Calls of active or inactive are those of the source. Cut-off read from the data, not from the text of the source: actives have a measured IC50 and inactives only a lower limit.

Target: Envelope glycoprotein gp160 (Human immunodeficiency virus 1, UniProt Q6QLK5)
Assay: cell-free HIV fusion peptide-binding blockers – biochemical, uHTS, fluorescence dequenching, […] (AID 1986)

Sequence of Envelope glycoprotein gp160 (Q6QLK5 whole entry, the tested form may be a part): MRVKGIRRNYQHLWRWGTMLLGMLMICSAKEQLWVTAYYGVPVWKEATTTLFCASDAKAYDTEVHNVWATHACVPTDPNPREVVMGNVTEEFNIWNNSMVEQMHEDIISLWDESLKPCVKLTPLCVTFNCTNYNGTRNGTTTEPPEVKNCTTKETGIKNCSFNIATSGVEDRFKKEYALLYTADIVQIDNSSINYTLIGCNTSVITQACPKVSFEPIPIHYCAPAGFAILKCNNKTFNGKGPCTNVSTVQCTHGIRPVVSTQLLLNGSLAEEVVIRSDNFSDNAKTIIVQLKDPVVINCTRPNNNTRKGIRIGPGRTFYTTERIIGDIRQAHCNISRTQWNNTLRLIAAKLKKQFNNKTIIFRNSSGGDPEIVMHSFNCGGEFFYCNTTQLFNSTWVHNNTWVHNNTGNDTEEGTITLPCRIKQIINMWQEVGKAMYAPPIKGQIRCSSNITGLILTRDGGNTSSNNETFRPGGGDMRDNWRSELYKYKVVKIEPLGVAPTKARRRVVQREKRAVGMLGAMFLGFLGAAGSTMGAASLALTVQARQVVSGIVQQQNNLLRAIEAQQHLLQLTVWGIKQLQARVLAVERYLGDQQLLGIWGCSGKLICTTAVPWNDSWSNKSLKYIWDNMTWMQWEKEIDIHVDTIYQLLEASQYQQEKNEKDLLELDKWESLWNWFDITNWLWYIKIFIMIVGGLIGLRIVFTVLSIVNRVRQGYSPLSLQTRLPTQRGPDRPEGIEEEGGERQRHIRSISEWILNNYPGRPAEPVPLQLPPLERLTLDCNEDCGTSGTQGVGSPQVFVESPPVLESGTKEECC

O=C(O)CN1C(=O)/C(=C\c2cc(Br)ccc2OCc2ccccc2F)SC1=S
IC50: 10.9 µM (active)

O=C(N/N=C/c1cc(Cl)cc([N+](=O)[O-])c1O)NC12CC3CC(CC(C3)C1)C2
IC50: 23.2 µM (active)
